ChEMBL document CHEMBL1158374, “Exploring QSAR and QAAR for inhibitors of cytochrome P450 2A6 and 2A5 enzymes using GFA and G/PLS techniques” (Eur J Med Chem, 2009)

Columns and labels:
Cytochrome P450 2A5 = target: T1, Cytochrome P450 2A5 (Mus musculus, UniProt P20852); experiment: Inhibition of mouse CYP2A5
T1 sequence (P20852 whole entry): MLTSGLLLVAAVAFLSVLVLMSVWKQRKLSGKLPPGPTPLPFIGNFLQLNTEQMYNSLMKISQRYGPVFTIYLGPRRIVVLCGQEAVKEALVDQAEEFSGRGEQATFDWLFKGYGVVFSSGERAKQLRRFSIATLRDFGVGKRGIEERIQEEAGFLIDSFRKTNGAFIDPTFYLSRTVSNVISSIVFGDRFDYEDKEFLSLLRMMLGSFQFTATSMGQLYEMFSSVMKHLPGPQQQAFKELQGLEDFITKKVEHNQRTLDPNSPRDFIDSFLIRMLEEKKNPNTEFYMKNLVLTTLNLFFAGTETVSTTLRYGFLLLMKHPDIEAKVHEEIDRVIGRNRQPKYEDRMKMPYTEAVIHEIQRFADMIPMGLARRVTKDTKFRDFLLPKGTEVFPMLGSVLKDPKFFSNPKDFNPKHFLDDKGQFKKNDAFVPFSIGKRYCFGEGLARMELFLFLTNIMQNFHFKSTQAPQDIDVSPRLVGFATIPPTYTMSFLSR

Cytochrome P450 2A6 = target: T2, Cytochrome P450 2A6 (Homo sapiens, UniProt P11509); experiment: Inhibition of human CYP2A6
T2 sequence (P11509 whole entry): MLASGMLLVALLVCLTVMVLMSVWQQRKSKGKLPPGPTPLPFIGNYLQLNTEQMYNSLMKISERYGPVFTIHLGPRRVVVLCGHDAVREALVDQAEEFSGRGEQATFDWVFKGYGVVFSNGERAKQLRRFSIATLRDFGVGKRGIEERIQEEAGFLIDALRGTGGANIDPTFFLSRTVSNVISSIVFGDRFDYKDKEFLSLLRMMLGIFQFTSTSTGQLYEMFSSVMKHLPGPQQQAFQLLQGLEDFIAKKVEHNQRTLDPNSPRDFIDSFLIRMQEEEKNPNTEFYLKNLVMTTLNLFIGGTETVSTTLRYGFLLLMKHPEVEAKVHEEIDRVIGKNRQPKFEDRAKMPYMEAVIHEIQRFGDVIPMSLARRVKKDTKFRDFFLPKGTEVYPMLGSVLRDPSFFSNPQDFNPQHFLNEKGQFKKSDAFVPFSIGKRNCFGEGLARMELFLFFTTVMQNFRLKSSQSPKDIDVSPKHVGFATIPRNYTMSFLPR

Structure (SMILES) | IC50 (Cytochrome P450 2A5) | IC50 (Cytochrome P450 2A6)
CN1C(=O)CCC1c1cccnc1 (centres undefined) | 1500 µM | 
CN1CCC[C@H]1c1cccnc1 [NICOTINE] | 160 µM | 579 µM
Clc1ccc(-c2ccccc2)cc1 | 13 µM | 
